Converted amounts (≈) assume the structure as drawn. Where two headings read alike, the source gives them in different places. No end group written: not given here.
Columns and labels:
M. luteus ATCC 10240 [1] = experiment: Deferred antagonism (overlay) assay, zone of inhibition; format: cell-based, Micrococcus luteus; conditions: relative to wild-type strain
Procedure: The deferred antagonism assay was performed as previously described^39. S. mutans strains were grown overnight in THyex broth at 37° C. The cultures were diluted to 0.1 OD OD600 and grown to mid-logarithmic phase before diluting to 0.05 OD600. Then, 2 μl of the cultures were spotted on THyex plates in duplicates of triplicates. The wild-type S. mutans JH1140 and S. mutans ΔmutA were used as positive and negative controls for activity, respectively. The plates were incubated for 18 hours in a candle jar at 37° C. After incubation, the strains were heat killed at 65° C. for 90 minutes. Fresh M. luteus grown overnight at 37° C. on THyex plates were used to inoculate pre-warmed THyex broth. The culture was grown to 0.6 to 0.8 OD before diluting to 0.2 OD600. The culture was further diluted 25-fold in melted (42° C.) THyex top agar. Approximately 5 mL of the top agar solution was spread on the heat killed bioassay plates and allowed to cool for 10 minutes. The plates were then placed in the incubator (at 37° C.) for 18 hours.
Streptococcus mutans ATCC 55676 (wild-type) and the mutants that were at an OD600 of 0.2 were spotted in triplicates on a pre-warmed THyex agar plate (150×15 mm) and allowed to dry. This assay was performed in this manner to ensure that each sample had the same colony size for comparing zones of inhibition. The plate was incubated for 24 hours then placed in an oven at 50° C. for thirty minutes to kill the bacteria before the indicator strain was overlaid. Heat killing the bacteria prevents any further antimicrobial compound production so that results seen are from single day incubation. Zone diameter was measured in millimeters across the plate and compared to wild-type (i.e. zone I for ATCC compared to zone I of Trp4Ala, etc.).

M. luteus ATCC 10240 [2] = format: cell-based, Micrococcus luteus; conditions: for M. luteus ATCC 10240 MIC / M. luteus ATCC 10240 MLC: Table 11
Procedure: (§1) Minimum Inhibitory Concentrations (MICs) were determined according to previously published protocol^31. A stock solution of the antibiotics tested was first suspended in 50% acetonitrile (ACN) at a concentration 640 μg/mL. This stock was subsequently diluted 2-fold until a final concentration 0.156 μg/mL was reached. Subsequently, 10 μl of each dilution was placed into a well on a 96 well microtiter plate. M. luteus ATCC 10240, S. pneumoniae, and B. subtilis PY79 were grown overnight in THyex at 37° C. Cultures were diluted in the morning to 0.1 OD600 and allowed to grow to 0.6 OD600. This culture was diluted a 100-fold in fresh THyex media and then 400 μl of this culture was added to 10 mL of fresh THyex. The suspension contains approximately 10^5 colony forming units (CFUs). The bacterial suspension (190 μL) was added to each well containing 10 μL of antibiotic suspension or solvent blank. […] Following the 15 minute pretreatment, 190 μL was added to each well as described above. The MIC is described as the […] concentration of antibiotic that prevented visible growth after 24 hours.
FIG. 11 illustrates the bioactivity of various core peptide mutants of mutacin 1130. The activity of the core mutant peptides is expressed as a ratio of the area of the zone of inhibition of each mutant strain to the area of the zone of inhibition of the wild-type strain against indicator strain of Micrococcus luteus. […] The deferred antagonism assay is an overlay assay of the indicator strain onto plates containing heat killed colonies of the mutacin producer strain after growing overnight. Core peptide mutants having inhibitory activity were isolated and the purified products were further evaluated by a standard minimum inhibitory concentration (MIC) assay.

C. accolens KPL 1818 = experiment: MIC/MLC assay against C. accolens KPL 1818; format: cell-based; conditions: THyex broth with 1% Tween 80
S. pneumoniae ATCC 27336 = format: cell-based, Streptococcus pneumoniae; conditions: Table 11
Procedure: as §1, with “hours. […]” for “hours.”

C. accolens ATCC 49725 = experiment: MIC/MLC assay against C. accolens ATCC 49725; format: cell-based; conditions: THyex broth with 1% Tween 80
S. aureus ATCC 25923 = experiment: MIC/MLC assay against S. aureus; format: cell-based, Staphylococcus aureus; conditions: Table 11
[3] = Pharmacokinetics after intravenous dose in mice; format: in vivo; conditions: 2.5 mg/kg i. v., BALB/c mice; at 70 minutes
Procedure: The compounds were dissolved in normal saline for all pharmacokinetic studies. An extraction protocol was developed in vitro by the addition of each compound to commercially bought BALB/c mouse serum. The compounds were extracted by the addition of 70% ACN containing 0.1% TFA/30% methanol containing 0.4% formic acid. The extract was then analyzed by LC-MS using a TSQ Vantage Triple Quad mass spectrometer. A standard curve was generated for each compound using known dilutions of the compounds in serum, which was then extracted. The R-squared values for each standard exceeded 0.98. BALB/c mice were used to evaluate pharmacokinetics of the compounds in vivo. A 2.5 mg/kg i. v. dose was evaluated for native mutacin, R13A, S5G, and double mutant S5A:T14G (FIG. 12A). A polynomial second order was used to estimate the peak plasma concentration and half-life of the R13A. […] Possibly, the Dhb14 residue may protect the peptide from trypsin-like proteases in the blood. […] Thus, taking the dynamics of cell death into account and the pharmacokinetics of the R13A, the R13A in serum is above the inhibitory concentration for S. pneumonia long enough to kill the pathogen.

Molecule | MIC (M. luteus ATCC 10240 [2]; ATCC 10240) | M. luteus ATCC 10240 MIC (M. luteus ATCC 10240 [2]) | C. accolens KPL 1818 MIC (C. accolens KPL 1818) | S. pneumonia ATCC 27336 MIC (S. pneumoniae ATCC 27336) | C. accolens ATCC 49725 MIC (C. accolens ATCC 49725) | S. aureus ATCC 25923 MIC (S. aureus ATCC 25923) | zone of inhibition / inhibitory activity in deferred antagonism assay (M. luteus ATCC 10240 [1]) | M. luteus ATCC 10240 MLC (M. luteus ATCC 10240 [2]) | C. accolens KPL 1818 MLC (C. accolens KPL 1818) | S. pneumonia ATCC 27336 MLC (S. pneumoniae ATCC 27336) | C. accolens ATCC 49725 MLC (C. accolens ATCC 49725) | S. aureus ATCC 25923 MLC (S. aureus ATCC 25923) | plasma level / clearance from blood [3] | MIC (M. luteus ATCC 10240 [2]; Table 10, indicator strain Micrococcus luteus) | activity relative to wild-type mutacin 1140 (M. luteus) (M. luteus ATCC 10240 [2]; purified variants)
C-terminal fluorescein conjugate of mutacin 1140: mu1140-COOH coupled to 5-(aminoacetamido)fluorescein at the C-terminus (FKSWSLCTPGCARTGSFNSYCC-{5‑(aminoacetamido)fluorescein}; ends and bridges not checked; UniProt O68586 42-63, looked up) | – | – | – | – | – | – | has the inhibitory activity | – | – | – | – | – | – | – | –
G15A*: core peptide mutant of mutacin 1140, Glycine 15 replaced by Alanine (FKSWSLCTPGCARTASFNSYCC; ends and bridges not checked; cysteine pairing not given here; UniProt O68586 42-63, looked up, variant G15A) | – | 0.125 micrograms per milliliter | 1 micrograms per milliliter | 0.5 micrograms per milliliter | 1 micrograms per milliliter | 16 micrograms per milliliter | no change in activity | 0.125 micrograms per milliliter | 2 micrograms per milliliter | 0.5 micrograms per milliliter | 1 micrograms per milliliter | 16 micrograms per milliliter | – | – | –
CC(C)C[C@@H]1NC(=O)[C@H](C)NC(=O)[C@H](Cc2c[nH]c3ccccc23)NC(=O)C(NC(=O)[C@H](CCCCN)NC(=O)[C@@H](N)Cc2ccccc2)CSC[C@@H](C(=O)NC2C(=O)N3CCC[C@H]3C(=O)NCC(=O)N[C@H](C(=O)N[C@@H](C)C(=O)N[C@@H](CCCNC(=N)N)C(=O)NCC(=O)NCC(=O)NC3CSC[C@@H]4NC(=O)[C@H](Cc5ccc(O)cc5)NC(=O)[C@@H](CS/C=C\NC4=O)NC(=O)[C@H](CC(N)=O)NC(=O)[C@H](Cc4ccccc4)NC3=O)CSC2C)NC1=O (some centres unmarked) [S5A:T14G] | – | – | – | – | – | – | – | – | – | – | – | – | performed the worst | – | –
A12T:T14G: core peptide mutant of mutacin 1140, positions 12, 14 replaced by Threonine and Glycine (FKSWSLCTPGCTRGGSFNSYCC; ends and bridges not checked; cysteine pairing not given here; UniProt O68586 42-63, looked up, variant A12T T14G) | – | 0.25 micrograms per milliliter | 0.5 micrograms per milliliter | 2 micrograms per milliliter | 0.125 micrograms per milliliter | >32 micrograms per milliliter | – | 0.25 micrograms per milliliter | 1 micrograms per milliliter | 2 micrograms per milliliter | 0.25 micrograms per milliliter | >32 micrograms per milliliter | – | – | –
C=C1NC(=O)[C@H](Cc2c[nH]c3ccccc23)NC(=O)[C@H](NC(=O)[C@H](CCCCN)NC(=O)[C@@H](N)Cc2ccccc2)CSC[C@@H](C(=O)N[C@H]2C(=O)N3CCC[C@H]3C(=O)NCC(=O)N[C@H](C(=O)N[C@@H](C)C(=O)N[C@@H](CCCNC(=N)N)C(=O)N/C(=C\C)C(=O)NCC(=O)N[C@@H]3CSC[C@@H]4NC(=O)[C@H](Cc5ccc(O)cc5)NC(=O)[C@@H](CS/C=C\NC4=O)NC(=O)[C@H](CC(N)=O)NC(=O)[C@H](Cc4ccccc4)NC3=O)CS[C@H]2C)NC(=O)[C@H](C)NC1=O [Mutant Leu6Ala] | – | – | – | – | – | – | larger zone of inhibition | – | – | – | – | – | – | 0.0625 µg/mL (≈ 0.0281 µM) | two-fold more active

Second part, led by results:

MIC (M. luteus ATCC 10240 [2]; ATCC 10240) | M. luteus ATCC 10240 MIC (M. luteus ATCC 10240 [2]) | C. accolens KPL 1818 MIC (C. accolens KPL 1818) | S. pneumonia ATCC 27336 MIC (S. pneumoniae ATCC 27336) | C. accolens ATCC 49725 MIC (C. accolens ATCC 49725) | S. aureus ATCC 25923 MIC (S. aureus ATCC 25923) | Molecule | zone of inhibition / inhibitory activity in deferred antagonism assay (M. luteus ATCC 10240 [1]) | M. luteus ATCC 10240 MLC (M. luteus ATCC 10240 [2]) | C. accolens KPL 1818 MLC (C. accolens KPL 1818) | S. pneumonia ATCC 27336 MLC (S. pneumoniae ATCC 27336) | C. accolens ATCC 49725 MLC (C. accolens ATCC 49725) | S. aureus ATCC 25923 MLC (S. aureus ATCC 25923) | plasma level / clearance from blood [3] | MIC (M. luteus ATCC 10240 [2]; Table 10, indicator strain Micrococcus luteus) | activity relative to wild-type mutacin 1140 (M. luteus) (M. luteus ATCC 10240 [2]; purified variants)
0.125 µg/mL (≈ 0.0566 µM) | – | – | – | – | – | C=C1NC(=O)[C@H](Cc2c[nH]c3ccccc23)NC(=O)[C@H](NC(=O)[C@H](C)NC(=O)[C@@H](N)Cc2ccccc2)CSC[C@@H](C(=O)N[C@H]2C(=O)N3CCC[C@H]3C(=O)NCC(=O)N[C@H](C(=O)N[C@@H](C)C(=O)N[C@@H](CCCNC(=N)N)C(=O)N/C(=C\C)C(=O)NCC(=O)N[C@@H]3CSC[C@@H]4NC(=O)[C@H](Cc5ccc(O)cc5)NC(=O)[C@@H](CS/C=C\NC4=O)NC(=O)[C@H](CC(N)=O)NC(=O)[C@H](Cc4ccccc4)NC3=O)CS[C@H]2C)NC(=O)[C@H](CC(C)C)NC1=O [Mutant Lys2Ala] | larger zone of inhibition | – | – | – | – | – | – | – | –
– | 0.125 micrograms per milliliter | 0.5 micrograms per milliliter | 0.125 micrograms per milliliter | 0.25 micrograms per milliliter | 16 micrograms per milliliter | S5A:A12S dehydrated: core peptide mutant of mutacin 1140, positions 5, 12 replaced by Alanine and Serine; dehydrated form (FKSWALCTPGCSRTGSFNSYCC; ends and bridges not checked; also: dehydrated form; UniProt O68586 42-63, looked up, variant S5A A12S) | – | 0.25 micrograms per milliliter | 1 micrograms per milliliter | 0.125 micrograms per milliliter | 0.25 micrograms per milliliter | 32 micrograms per milliliter | – | – | –

— patent US10577399B2, “Modified lantibiotics and methods of making and using the modified lantibiotics” (priority 2016, dated 2020)
